Assay [1] has as its system diaphragm tissue from fat-fed rats (pyruvate oxidation). The assay is described as follows: Pyruvate oxidation by diaphragm tissue from fat-fed rats in vitro (carbon-14 from labelled pyruvate into carbon dioxide). Format: cell-based. To be noted: fat-fed rat diaphragm, read-out: % Stimulation (pyruvate oxidation); for activation at 500 µM: concentration 0.5 m. mol.; for activation at 2000 µM: concentration 2 m. mol.; for activation at 1000 µM: concentration 1 m. mol. The procedure: (1) increase the oxidation of glucose and/or pyruvate by isolated rat muscle preparations in vitro; The compounds of formulae (I) and (II) have been tested for their ability to increase the oxidation of glucose and/or pyruvate as follows: Diaphragm tissue is obtained from rats fed on a high fat diet similar to `Diet B` described by Zaragoza and Felber, Horm. Metab. Res., 2, 323 (1970). Pyruvate oxidation by such tissue is assessed by measurement of the rate of incorporation of carbon-14 from carbon-14-labelled pyruvate into carbon dioxide in vitro, as described by Bringold, Eur. J. Biochem., 26, 360 (1972). The rate of pyruvate oxidation is depressed by 50-75% compared with that by diaphragm tissue from rats fed on a normal diet. When the compounds of the invention are added to the medium, they are found to stimulate pyruvate oxidation by diaphragm tissue from fat-fed rats in a dose dependent manner.

In assay [2] the test system is pyruvate dehydrogenase enzyme (PDH). Put plainly: Increase in proportion of active form of pyruvate dehydrogenase (PDHa/PDHt) in hearts of fat-fed rats in vivo. To be noted: fat-fed rat heart. The procedure:
(2) increase the proportion of the active form of the enzyme pyruvate dehydrogenase (PDH) in organs of animals (e.g., rat heart) in vivo; and The ability of the compounds of this invention to increase the proportion of the active form of the pyruvate dehydrogenase enzyme has been measured in the following test: Rats fed on a high fat diet as in the previous test, are treated either with placebo or with the compound of formula (I) or (II) by sub-cutaneous or intravenous injection or by oral administration. After 11/2 hours the rat hearts are removed and homogenized under conditions which minimize changes in the proportion of the pyruvate dehydrogenase enzyme (PDH) which is present in the active form, as described by Whitehouse and Randle, Biochem, J., 134, 651 (1973). The total amount of the enzyme present (PDHt) and the amount which is present in the active form (PDHa) are assessed by a method similar to that described by Taylor et al., J. Biol. Chem., 248, 73 (1973). The fat-feeding process is found to depress the ratio […] from a normal value of about 0.7 to a value in the range from 0.1 to 0.3. Treatment of fat-fed rats with the compounds of formula (I) or (II) parenterally increases this ratio in a dose-dependent manner. The increase in […] ration affected by certain of the compounds when administered by subcutaneous infection at the dosage indicated is shown in the following table: […]

The mark [3] stands for this setting: 0.6 mmol/kg subcutaneous, placebo 0.12.

The record followed here is patent US4341792A, “Heterobicyclic keto- and amino-acids, esters and amides” (Pfizer Inc., priority 1979, dated 1982).

For `NC(=O)C(N)c1ccc2c(c1)CCO2` (racemic) [Example 6, DL-α-Amino-2,3-dihydro-5-benzo(b)furanylacetamide], the activation at 500 µM in assay [1] was 29%. In addition, the PDHa/PDHt ratio in assay [2] (setting [3]) turned out to be 0.46.
Turning to `COCCNC(=O)C(N)c1ccc2c(c1)CCO2.Cl` (racemic) [Example 7, DL-N-(2-Methoxyethyl)-α-amino-2,3-dihydro-5-benzo(b)furanylacetamide Hydrochloride], the activation at 500 µM in assay [1] turned out to be 23%. Further, in assay [2] (setting [3]), the PDHa/PDHt ratio is recorded as 0.47.
Regarding `NC(C(=O)O)c1ccc2occc2c1` (racemic) [Example 9, DL-2-[5-Benzo(b)furanyl]glycine], in assay [1], the activation at 500 µM was determined as 42%.
Regarding `NC(=O)C(N)c1ccc2occc2c1` (racemic) [Example 10, DL-2-[5-Benzo(b)furanyl]glycinamide], the activation at 500 µM in assay [1] was 46%.
Same read-out and setting: the value for `NC(C(=O)O)c1ccc2c(c1)CCS2` (racemic) [Example 13, DL-2-[2,3-Dihydro-5-benzo(b)thienyl]glycine] was 21%.
`NC(=O)C(N)c1ccc2c(c1)CCS2` (racemic) [Example 15, DL-2-[2,3-Dihydro-5-benzo(b)thienyl]glycinamide]: the activation at 2000 µM in assay [1] was determined as 11%.
Turning to `O=C(O)C(=O)c1ccc2c(c1)CCS2` [Example 2, 2,3-Dihydro-5-benzo(b)thienylglyoxylic Acid], the activation at 1000 µM in assay [1] turned out to be 105%. In assay [2] (1.2 mmol/kg subcutaneous, placebo 0.27), the PDHa/PDHt ratio is given as 0.48.
Turning to `O=C(O)C(=O)c1ccc2c(c1)CCO2` [Example 3, 2,3-Dihydro-5-benzo(b)furanylglyoxylic Acid], in assay [1], the activation at 1000 µM was determined as 128%. In assay [2] (0.3 mmol/kg subcutaneous, placebo 0.11), the PDHa/PDHt ratio is 0.21.
Take `O=C(O)C(=O)c1ccc2c(c1)CCCO2` [Example 4, 6-Chromanylglyoxylic Acid]: the activation at 500 µM in assay [1] came out at 69%.
On the same count and under the same terms, the value for `O=C(O)C(=O)c1ccc2occc2c1` [Example 8, 5-Benzo(b)furanylglyoxlic Acid] was 95%.
As for `O=C(O)C(=O)c1ccc2oc(-c3ccccc3)cc2c1` [Example 11, 2-Phenyl-5-benzo(b)furanyl Glyoxylic Acid], the activation at 2000 µM in assay [1] is 99%. In assay [2] (0.3 mmol/kg subcutaneous, placebo 0.20), the PDHa/PDHt ratio is 0.26.
Turning to `Cc1cc2cc(C(=O)C(=O)O)ccc2o1` [Example 12, 2-Methyl-5-benzo(b)furanylglyoxylic Acid], in assay [1], the activation at 500 µM was determined as 58%. Further, the PDHa/PDHt ratio in assay [2] (0.3 mmol/kg subcutaneous, placebo 0.12) came out at 0.36.
